How the values were obtained:
[1] = tested on: RBCS::PYR1^MANDI transgenic seeds; assay: seed germination on mandipropamid medium; format: in vivo, Arabidopsis; settings: 1 μM mandipropamid
From the text: (§1) We generated a series of transgenic plants expressing PYR1^MANDI under the control of either the cauliflower mosaic virus 35S or Arabidopsis Rubisco small subunit 3B promoters (RBCS). These were generated for the purpose of examining the physiological efficacy of the PYR1^MANDI-mandipropamid system for regulating ABA responses in planta. The PYR1^MANDI coding sequence was PCR amplified from pBD-PYR1^MANDI template and cloned into the plant transformation vector pEGAD under control of the 35S promoter. For the RBCS driven construct, the 35S promoter in pEGAD was replaced with the RBCS promoter, which was amplified from Arabidopsis genomic DNA by PCR; the pEGAD vector contains a glufosinate resistance gene and allows selection of transgenics in soil using commercially available formulations of glufosinate. These two constructs, p35S::PYR1^MANDI and pRBCS::PYR1^MANDI, were introduced into Agrobacterium tumefacians GV3101 and then used to transform Arabidopsis using the floral dip method (Clough and Bent, 1998) and the resultant seed germinated in soil and treated with glufosinate to identify transformed plants. Seed from approximately 15-16 transgenic plants were harvested individually and then characterized. It is well known that ABA inhibits seed germination. […]

[2] = tested on: 35S::PYR1^MANDI transgenic seeds; assay: seed germination on mandipropamid medium; format: in vivo, Arabidopsis; settings: 1 μM mandipropamid
From the text: as §1

[3] = target: T1, GST-HAB1 with 6×-His-PYR1^MANDI (Arabidopsis thaliana, UniProt O49686, F108A/F159L/K59R/S122G/V81I/Y58H); assay: PP2C enzyme inhibition assay (4-methylumbelliferyl-phosphate); format: biochemical; settings: 100 nM 6×-His-PYR1^MANDI, 50 nM GST-PP2C; read-out: IC50, mandipropamid mediated inhibition of HAB1
T1 construct: made in house; host or cells: E. coli BL21[DE3]pLysS (receptor)
T1 sequence (Q9CAJ0 23-511): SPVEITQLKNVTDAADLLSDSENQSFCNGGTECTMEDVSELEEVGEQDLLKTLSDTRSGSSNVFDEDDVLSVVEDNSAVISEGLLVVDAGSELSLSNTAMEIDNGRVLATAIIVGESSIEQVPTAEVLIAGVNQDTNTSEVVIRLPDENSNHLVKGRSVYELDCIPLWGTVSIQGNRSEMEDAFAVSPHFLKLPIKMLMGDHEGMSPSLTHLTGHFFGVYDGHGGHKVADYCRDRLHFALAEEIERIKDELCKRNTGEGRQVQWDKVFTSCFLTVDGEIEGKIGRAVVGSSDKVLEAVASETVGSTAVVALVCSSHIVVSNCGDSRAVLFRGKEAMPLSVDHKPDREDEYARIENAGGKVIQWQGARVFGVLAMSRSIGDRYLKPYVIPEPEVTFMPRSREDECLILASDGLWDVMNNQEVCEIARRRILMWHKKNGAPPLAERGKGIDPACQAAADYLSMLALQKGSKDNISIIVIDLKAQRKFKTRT
T1 sequence (O49686 whole entry Y58H/K59R/V81I/F108A/S122G/F159L): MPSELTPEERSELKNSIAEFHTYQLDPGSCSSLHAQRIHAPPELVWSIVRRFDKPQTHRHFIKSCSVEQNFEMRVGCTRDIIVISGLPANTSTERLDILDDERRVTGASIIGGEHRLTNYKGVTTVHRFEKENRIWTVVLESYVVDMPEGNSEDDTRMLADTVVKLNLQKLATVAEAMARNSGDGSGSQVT
Description: (§2) We next characterized the effects of recombinant PYR1^MANDI on PP2C activity using the fluorogenic substrate 4-methylumbelliferyl-phosphate. Recombinant receptor and PP2C proteins were prepared as described above and used to examine PP2C inactivation in response to mandipropamid or ABA. Enzyme inhibition assays were conducted using the following assay conditions: 100 nM 6×-His-PYR1^MANDI, 50 nM GST-PP2C, 100 mM Tris-OAc (pH 7.9), 100 mM NaCl, 1 mM MnCl2, 1% β-mercaptoethanol. […] The three ABA-regulated clade A PP2Cs, GST-HAB1, GST-ABI1 and GST-ABI2 were each tested under the same enzyme conditions in separate reactions. The assays were conducted at a variety of mandipropamid or ABA concentrations so that IC50 values could be determined. […] Thus, the PYR1^MANDI receptor is highly sensitive to activation by mandipropamid and interacts with multiple clade A PP2Cs in response to mandipropamid. This high level of sensitivity is consistent with the yeast two hybrid results described above in which a detectable interaction between PYR1^MANDI and HAB1 could be observed at concentrations as low as 2 nM (see Table 1). We note that the yeast two hybrid reporter systems requires only a small percentage of PYR1^MANDI receptors to bind HAB1 for an interaction signal and is therefore a potentially more sensitive indicator than in vitro assays. […] Thus these in vitro assays confirm that PYR1^MANDI is selectively activated by mandipropamid.

[4] = target: T2, GST-ABI2 with 6×-His-PYR1^MANDI (Arabidopsis thaliana, UniProt O49686, F108A/F159L/K59R/S122G/V81I/Y58H); assay: as above; format: biochemical; settings: 100 nM 6×-His-PYR1^MANDI, 50 nM GST-PP2C; read-out: IC50, mandipropamid mediated inhibition of ABI2
T2 construct: made in house; host or cells: E. coli BL21[DE3]pLysS (receptor)
T2 sequence (O49686 whole entry Y58H/K59R/V81I/F108A/S122G/F159L): as above
T2 sequence (O04719 whole entry partner): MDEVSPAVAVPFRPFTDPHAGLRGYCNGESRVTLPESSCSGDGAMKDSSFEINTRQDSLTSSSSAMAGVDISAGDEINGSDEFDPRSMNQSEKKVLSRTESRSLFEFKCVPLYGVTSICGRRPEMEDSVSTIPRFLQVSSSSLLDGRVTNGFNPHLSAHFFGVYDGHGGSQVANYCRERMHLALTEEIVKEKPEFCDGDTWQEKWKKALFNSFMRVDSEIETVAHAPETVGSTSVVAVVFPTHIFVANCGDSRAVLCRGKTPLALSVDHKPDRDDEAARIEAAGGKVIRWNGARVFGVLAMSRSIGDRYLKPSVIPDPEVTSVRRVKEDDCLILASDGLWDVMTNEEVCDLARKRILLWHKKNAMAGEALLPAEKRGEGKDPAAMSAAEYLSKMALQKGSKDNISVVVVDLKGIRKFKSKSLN
Description: as §2

[5] = target: T3, GST-ABI1 with 6×-His-PYR1^MANDI (Arabidopsis thaliana, UniProt O49686, F108A/F159L/K59R/S122G/V81I/Y58H); assay: as above; format: biochemical; settings: 100 nM 6×-His-PYR1^MANDI, 50 nM GST-PP2C; read-out: IC50, mandipropamid mediated inhibition of ABI1
T3 construct: made in house; host or cells: E. coli BL21[DE3]pLysS (receptor)
T3 sequence (O49686 whole entry Y58H/K59R/V81I/F108A/S122G/F159L): as the sequence (O49686 whole entry Y58H/K59R/V81I/F108A/S122G/F159L) above
T3 sequence (P49597 whole entry partner): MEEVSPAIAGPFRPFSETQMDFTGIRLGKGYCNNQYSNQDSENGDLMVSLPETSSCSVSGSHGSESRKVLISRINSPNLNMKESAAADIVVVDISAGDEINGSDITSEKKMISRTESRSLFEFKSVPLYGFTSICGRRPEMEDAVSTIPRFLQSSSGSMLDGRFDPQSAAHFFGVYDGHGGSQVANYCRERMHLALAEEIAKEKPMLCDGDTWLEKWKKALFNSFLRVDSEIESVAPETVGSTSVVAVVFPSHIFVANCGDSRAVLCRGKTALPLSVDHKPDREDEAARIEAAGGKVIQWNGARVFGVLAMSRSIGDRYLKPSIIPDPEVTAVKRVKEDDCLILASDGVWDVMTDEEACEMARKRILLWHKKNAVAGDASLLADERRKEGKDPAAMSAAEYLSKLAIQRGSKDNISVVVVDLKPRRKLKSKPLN
Description: as §2

[6] = tested on: PYR1-OX; assay: root growth inhibition assay; format: in vivo, Arabidopsis; settings: 72 hours after transfer
From the text: Given the relatively high mandipropamid sensitivity of the MDP1 and MDP2 transgenic lines, these lines were subjected to further physiological characterization. One of ABA's physiological effects is to inhibit root growth. Mandipropamid should therefore inhibit root growth in the MDP1 and MDP2 transgenic lines, but not wild type, if it is successfully activating this ABA response. To test this, seeds of the wild type, PYR1-OX, MDP1 and MDP2 genotypes were surface sterilized in bleach and plated on to 0.7% agar petri plates containing ½ MS salts and 0.5% sucrose. After 4 days of stratification at 4° C., the plates were transferred to a growth chamber operating on a 16-hour day length cycle and allowed to germinate for 24 hours and then transferred to petri plates (0.7% agar containing ½ MS salts and 0.5% sucrose) supplemented with differing concentrations of mandipropamid. These plates were then grown vertically in a growth chamber operating on a 16-hour day length cycle. The amount of root growth after transfer was measured 72-hours later after transfer.

C#CCOc1ccc(CCNC(=O)C(OCC#C)c2ccc(Cl)cc2)cc1OC (stereo not drawn) [Mandipropamid, mandipropamid]
transgenic plants whose germination was inhibited by mandipropamid [1]: 7 of the 16 | transgenic plants whose germination was inhibited by mandipropamid [2]: 5 of the 15 | IC50 [3]: 32.2 nM | IC50 [4]: 75.5 nM | IC50 [5]: 26.8 nM | root growth [6]: negligible inhibition

From patent publication US9738902B2, “Modified PYR/PYL receptors activated by ligands” (priority 2013, dated 2017)
